PMC4774911, “Biochemical Screening of Five Protein Kinases from Plasmodium falciparum against 14,000 Cell-Active Compounds” (PLoS ONE, 2016)
Read-outs that look alike come from different tables or passages of the source.

Tests used:
P. falciparum 3D7 cells = conditions: 3D7; ref downloaded from ChEMBL; cited from earlier work
HepG2 cells = conditions: HEPG2; ref downloaded from ChEMBL; cited from earlier work
DD2 = test system: DD2; set-up: method as in downloaded from ChEMBL; conditions: ref downloaded from ChEMBL; cited from earlier work
3D7 PFLDH = test system: 3D7 PFLDH; set-up: method as in downloaded from ChEMBL; conditions: ref downloaded from ChEMBL; cited from earlier work
[1] = biological target: T1, Plasmodium falciparum protein kinase 6 (PK6) (Plasmodium falciparum, UniProt Q8IDW1); experiment: biochemical; conditions: hits below 1 uM; read-out: PK6 IC50
T1 construct: 6-Histidine (N); made in house
T1 sequence (Q8IDW1 1-305): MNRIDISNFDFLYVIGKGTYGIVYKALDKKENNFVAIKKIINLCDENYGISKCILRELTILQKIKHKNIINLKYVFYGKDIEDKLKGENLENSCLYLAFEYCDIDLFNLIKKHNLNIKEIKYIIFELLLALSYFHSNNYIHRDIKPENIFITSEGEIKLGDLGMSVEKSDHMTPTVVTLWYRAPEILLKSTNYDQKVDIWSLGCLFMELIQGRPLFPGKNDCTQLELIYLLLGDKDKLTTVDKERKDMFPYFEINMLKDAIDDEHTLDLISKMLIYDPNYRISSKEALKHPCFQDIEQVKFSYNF

[2] = biological target: T2, Plasmodium falciparum calcium-dependent protein kinase 1 (CDPK1) (Plasmodium falciparum, UniProt P62344); experiment: CDPK1 Kinase-Glo ATP-consumption screen and dose-response; type: biochemical
T2 construct: 6-Histidine (N); made in house
Summary of the method: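 ATP consumption by recombinant P. falciparum CDPK4 or CDPK1 measured as residual ATP by Kinase-Glo luminescence, with 40 μM Syntide-2 substrate and 90 min incubation stopped with 5 mM EGTA. Single-point screen at 1 μM final, followed by dose-response; no-substrate wells as negative control.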

[3] = hits below 1 uM, read-out: CDPK1 IC50

T2 sequence (P62344 whole entry): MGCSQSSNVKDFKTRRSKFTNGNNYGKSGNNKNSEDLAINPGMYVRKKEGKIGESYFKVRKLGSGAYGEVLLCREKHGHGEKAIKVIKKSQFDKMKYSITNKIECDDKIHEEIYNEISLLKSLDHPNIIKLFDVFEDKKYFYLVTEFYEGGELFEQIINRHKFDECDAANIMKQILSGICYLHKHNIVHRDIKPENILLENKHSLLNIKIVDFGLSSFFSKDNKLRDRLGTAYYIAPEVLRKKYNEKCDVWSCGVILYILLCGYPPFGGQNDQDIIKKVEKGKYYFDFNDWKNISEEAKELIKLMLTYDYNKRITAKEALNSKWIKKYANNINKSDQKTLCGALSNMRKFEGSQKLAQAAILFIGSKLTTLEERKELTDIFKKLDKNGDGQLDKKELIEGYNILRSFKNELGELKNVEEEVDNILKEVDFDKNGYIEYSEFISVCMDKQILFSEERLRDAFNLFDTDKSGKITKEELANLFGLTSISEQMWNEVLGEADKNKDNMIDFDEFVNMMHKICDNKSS

Structure (SMILES) | IC50 [2, 3] | PCT_IHB_3D7 (P. falciparum 3D7 cells) | pXC50_3D7 (P. falciparum 3D7 cells) | PCT_INHIB_HEPG2 (HepG2 cells) | PCT_INHB_DD2 (DD2) | PCT_INHIB_3D7_PFLDH (3D7 PFLDH) | IC50 [1] | IC50 [2]
COc1c(CN2CCOCC2)cccc1-c1cc2c(-c3ccc(C(=O)O)c(C(C)C)c3)ccnc2[nH]1.O=C(O)C(F)(F)F [TCMDC-135049] | – | 98 | 6.1293 | 44 | 90 | 0 | 695 nM | –
Oc1cccc(-c2cnc3ccc(NCc4ccc(F)cc4)nn23)c1 [TCMDC-136676] | 115 nM | 91 | 5.965 | 0 | 66 | 2 | – | –
N#Cc1ccc(-c2cnc3ccc(NCCc4cccnc4)nn23)cc1 [TCMDC-136679] | 246 nM | 99 | 6.593 | 27 | 81 | 6 | – | –
Clc1ccc(-c2cnc3ccc(NCCc4cccnc4)nn23)cc1 [TCMDC-136680] | 371 nM | 97 | 6.067 | 34 | 32 | 0 | – | –
COc1ccc(-c2cnc3ccc(NCCCO)nn23)cc1OC [TCMDC-136683] | – | 98 | 6.172 | 9 | 90 | 0 | – | 361 nM
COc1ccc(-c2cnc3ccc(NC4CCC(O)CC4)nn23)cn1 (stereo not drawn) [TCMDC-136694] | 379 nM | 98 | 6.146 | 54 | 73 | 4 | – | –
Cl.Oc1cccc(Nc2ccnc3cc(-c4ccncc4)ccc23)c1 [TCMDC-138292] | 884 nM | 100 | 5.98 | 8 | 99 | 1 | – | –
Cc1nc(-c2cccc(Nc3ccnc4cc(-c5nccs5)ccc34)c2)no1.Cl [TCMDC-138334] | 191 nM | 99 | 6.492 | 37 | 90 | 0 | – | –
Cc1nnc(-c2cccc(Nc3ccnc4cc(-c5nccs5)ccc34)c2)o1.Cl [TCMDC-138335] | 186 nM | 95 | 6.199 | 38 | 89 | 0 | – | –
Oc1cc(Nc2ccnc3cc(I)ccc23)c(F)cc1Cl [TCMDC-138386] | 282 nM | 92 | 6.08 | 0 | 77 | 0 | – | –
CN1CCN(Cc2ccc(-c3ccc4c(Nc5ccc(Cl)cc5F)ccnc4c3)o2)CC1 [TCMDC-138395] | 406 nM | 100 | 6.811 | 47 | 100 | 0 | – | –
Fc1cc(Cl)ccc1Nc1ccnc2cc(-c3ccc(CNCCN4CCOCC4)o3)ccc12 [TCMDC-138397] | 383 nM | 100 | 6.5582 | 13 | 100 | 0 | – | –
COCCNCc1cccc(-c2ccc3c(Nc4cc(O)c(Cl)cc4F)ccnc3c2)c1 [TCMDC-138429] | 436 nM | 100 | 6.944 | 0 | 79 | 7 | – | –
CN1CCN(Cc2cccc(-c3ccc4c(Nc5cc(O)c(Cl)cc5F)ccnc4c3)c2)CC1 [TCMDC-138430] | 762 nM | 100 | 6.114 | 0 | 100 | 4 | – | –
CS(=O)(=O)CCNCc1cccc(-c2ccc3c(Nc4cc(O)c(Cl)cc4F)ccnc3c2)c1 [TCMDC-138435] | 71 nM | 100 | 6.595 | 9 | 100 | 0 | – | –
COCCNCc1ncsc1-c1ccc2c(Nc3cc(O)c(Cl)cc3F)ccnc2c1 [TCMDC-138441] | 150 nM | 100 | 6.262 | 0 | 92 | 0 | – | –
CN1CCN(Cc2ccc(-c3ccc4c(Nc5cc(O)c(Cl)cc5F)ccnc4c3)o2)CC1 [TCMDC-138446] | 131 nM | 100 | 6.961 | 2 | 99 | 0 | – | –
Cc1ccc(O)cc1Nc1ccnc2cc(-c3cccc(CNCCS(C)(=O)=O)c3)ccc12 [TCMDC-138472] | 125 nM | 99 | 6.078 | 9 | 100 | 2 | – | –

Now from value to compound, other results behind:

IC50 [2, 3] | Structure (SMILES) | PCT_IHB_3D7 (P. falciparum 3D7 cells) | pXC50_3D7 (P. falciparum 3D7 cells) | PCT_INHIB_HEPG2 (HepG2 cells) | PCT_INHB_DD2 (DD2) | PCT_INHIB_3D7_PFLDH (3D7 PFLDH) | IC50 [1] | IC50 [2]
604 nM | CN(C)CCN(C)Cc1ccc(-c2ccc3c(Nc4ccc(Cl)cc4F)ccnc3c2)o1 [TCMDC-138388] | 100 | 6.444 | 20 | 76 | 1 | – | –
185 nM | CN(C)Cc1ccc(-c2ccc3c(Nc4ccc(Cl)cc4F)ccnc3c2)o1 [TCMDC-138389] | 100 | 6.6173 | 13 | 99 | 0 | – | –
374 nM | CN(C)CCNCc1ccc(-c2ccc3c(Nc4ccc(Cl)cc4F)ccnc3c2)o1 [TCMDC-138391] | 99 | 6.681 | 14 | 100 | 0 | – | –
435 nM | c1ccc(Oc2ccc(Nc3ccnc4cc(-c5ccc(CNCCN6CCOCC6)o5)ccc34)cc2)cc1 [TCMDC-138398] | 99 | 6.358 | 20 | 99 | 0 | – | –
681 nM | CN(C)CCNCc1ccc(-c2ccc3c(Nc4ccc(Oc5ccccc5)cc4)ccnc3c2)o1 [TCMDC-138399] | 100 | 6.553 | 19 | 99 | 2 | – | –
718 nM | CN(C)CCN(C)Cc1ccc(-c2ccc3c(Nc4ccc(Oc5ccccc5)cc4)ccnc3c2)o1 [TCMDC-138400] | 100 | 6.746 | 5 | 100 | 0 | – | –
915 nM | CN(C)CCN(C)Cc1nc(-c2ccc3c(Nc4ccc(Oc5ccccc5)cc4)ccnc3c2)cs1 [TCMDC-138408] | 100 | 6.673 | 27 | 100 | 0 | – | –
887 nM | CN(C)CCNCc1nc(-c2ccc3c(Nc4ccc(Oc5ccccc5)cc4)ccnc3c2)cs1 [TCMDC-138410] | 100 | 6.1332 | 8 | 100 | 6 | – | –
513 nM | CN(C)Cc1ccc(-c2ccc3c(Nc4ccc(Oc5ccccn5)cc4)ccnc3c2)o1 [TCMDC-138425] | 100 | 6.798 | 18 | 100 | 1 | – | –
979 nM | COCCNCc1cccc(-c2ccc3c(Nc4ccc(Oc5ccccc5)cc4)ccnc3c2)c1 [TCMDC-138478] | 100 | 6.287 | 25 | 99 | 2 | – | –
913 nM | COCCNCc1cccc(-c2ccc3c(Nc4ccc(Oc5cccnc5)cc4)ccnc3c2)c1 [TCMDC-138487] | 100 | 6.749 | 58 | 99 | 0 | – | –
966 nM | CS(=O)(=O)CCNCc1cccc(-c2ccc3c(Nc4ccc(Oc5cccnc5)cc4)ccnc3c2)c1 [TCMDC-138488] | 100 | 6.847 | 27 | 99 | 4 | – | –
705 nM | c1cncc(Oc2ccc(Nc3ccnc4cc(-c5cccc(CNCCN6CCOCC6)c5)ccc34)cc2)c1 [TCMDC-138492] | 100 | 6.952 | 14 | 99 | 4 | – | –
845 nM | CN(C)CCNCc1cccc(-c2ccc3c(Nc4ccc(Oc5ccccn5)cc4)ccnc3c2)c1 [TCMDC-138493] | 99 | 6.633 | 27 | 100 | 2 | – | –
